Results from patent publication US6774121B1, “Phospholipid prodrugs of anti-proliferative drugs” (D-Pharm, Ltd., priority 1999, dated 2004).
Like-named read-outs stand apart in the source and are kept apart here.

Tests used:
[1] = tested on: CEM-MTX (MTX-resistant mutant of CEM, mutation in the RFC); assay: MTT cell growth inhibition, MTX-resistant CEM-MTX cells (Example 4); format: cell-based, human; conditions: Homo sapiens; 72 hours, MTT assay; read-out: EC50, nMol CEM-MTX
Description: A series of methotrexate derivatives were screened for their inhibitory effect on cell growth. Three tumor cell lines were used for this screen: i) human leukemia cell line CCRF-CEM which is MTX-sensitive (herein denoted as CEM), ii) a mutant of CEM cell line which is MTX-resistant due to a mutation in the RFC (herein denoted as CEM-MTX; provided by Dr. Y. Assraf, Technion, Israel), and iii) rat C6 glioma cell line.
Cells were seeded at a density of 10^4 cells/ml in RPMI medium supplemented with 10% FCS in 96 well plates. The cultured cells were incubated, during their linear growth phase, in the presence and absence of various concentrations of MTX derivatives. The tested compounds were prepared as 1 mM stock in absolute ethanol or DMSO and were diluted into the medium. The highest vehicle presence in the assay was 5% of the vehicle. After 72 hours at 37° C. the cytotoxic effect on the cells was estimated by using the colorimetric MTT assay (Mosmann (1983) J. Immunol Methods 65: 55-63) that measures mitochondrial reductase activity and serves for quantitative assessment of cellular viability. Drug concentration required for inhibiting the growth of 50% of cell population in culture over a 72 hour period incubation, is defined as EC50.
The EC50 values were calculated from dose response curves for each tested compound.

[2] = tested on: Wild type human leukemia CEM cells; assay: MTT cytotoxicity with and without Leucovorin, CEM cells (Example 6); format: cell-based; conditions: CCRF-CEM, 72 hours
Description: Leucovorin is a reduced folate, used in chemotherapy with high doses of methotrexate for ‘rescue’ of host from toxicity.
Wild type human leukemia CEM cells or the MTX-resistant mutant cells, CEM-MTX, were plated into 96 well plates containing RPMI, 10% FCS at a concentration of 5×10^4 cells/ml. […] Leucovorin, at a final concentration of 10 μM, was added to some of the plates as indicated. The plates were incubated for 72 hours (37° C., 5% CO2) before being assayed for viability using the colorimetric MTT assay (Mosmann (1983) J. Immunol Methods 65: 55-63).

L1210 = assay: MTT cytotoxicity on tumor cell lines, L1210 (Example 8); format: cell-based; conditions: L1210, lymphocytic leukemia (mouse), 72 hours
Description: Cell viability was analyzed after 72 hours incubation (37° C., 5% CO2) using the colorimetric MTT assay (Mosmann (1983) J. Immunol Methods 65: 55-63).

CN(Cc1cnc2nc(N)nc(N)c2n1)c1ccc(C(=O)N[C@@H](CCC(=O)O)C(=O)O)cc1 [MTX, Methotrexate]
EC50 [1]: 2540 nM | EC50 ([2]; 10 μM Leucovorin, read-out: EC50, nMol + 10 μM Leucovorin): 910 ± 378 nM | EC50 ([2]; read-out: EC50, nMol No Leucovorin): 23 ± 13 nM | EC50 (L1210): 13 nM
